Tests used:
Test in all cases: Test B pre-/postemergence plant response
Type in all cases: in vivo
[1] = tested on: yellow nutsedge (Cyperus esculentus)
In short: (§1)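 Steps: sow seed in loam–sand soil and spray preemergence, or grow plants in peat-based medium to 1–4 leaves (2–18 cm) and spray postemergence; formulation is non-phytotoxic solvent plus surfactant; hold in greenhouse 13–15 days; score visually vs controls, 0 = no effect, 100 = complete control.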

[2] = tested on: woolly cupgrass (Eriochloa villosa)
In short: as §1

[3] = tested on: Surinam grass (Brachiaria decumbens)
In short: as §1

[4] = tested on: green foxtail (Setaria viridis)
In short: as §1

[5] = tested on: large crabgrass (Digitaria sanguinalis)
In short: as §1

[6] = tested on: morningglory (Ipomoea coccinea)
In short: as §1

[7] = tested on: giant foxtail (Setaria faberii)
In short: as §1

corn (Zea mays) = tested on: corn (Zea mays)
In short: as §1

[8] = tested on: Italian ryegrass (Lolium multiflorum)
In short: as §1

[9] = tested on: bermudagrass (Cynodon dactylon)
In short: as §1

[10] = tested on: lambsquarters (Chenopodium album)
In short: as §1

[11] = tested on: blackgrass (Alopecurus myosuroides)
In short: as §1

[12] = tested on: downy bromegrass (Bromus tectorum)
In short: as §1

[13] = 250 g ai/ha, Preemergence, 0 to 100 scale
[14] = Postemergence, 62 g ai/ha, scale 0 (no effect) to 100 (complete control), 13 to 15 days
[15] = Postemergence, 125 g ai/ha, visual rating after 13 to 15 days, scale 0 (no effect) to 100 (complete control)
[16] = Preemergence, 31 g ai/ha, scale 0 to 100 (0 no effect, 100 complete control)
[17] = Preemergence, 125 g ai/ha, 0 to 100 scale
[18] = Postemergence, 31 g ai/ha, scale 0 to 100 (0 no effect, 100 complete control)
[19] = Postemergence, 250 g ai/ha, scale 0 to 100
[20] = Preemergence, 62 g ai/ha, scale 0 to 100 (0 no effect, 100 complete control)

Structure (SMILES): Cc1cccc(Cl)c1-n1c(-c2ccccc2)ncc(C(=O)C2=C(O)CCCC2=O)c1=O [Compound 46]
- Plant response rating, Nutsedge, Yellow [1, 13]: 90
- Plant response rating, Nutsedge, Yellow [1, 14]: 70
- Plant response rating, Nutsedge, Yellow [1, 15]: 70
- Plant response rating, Nutsedge, Yellow [1, 16]: 25
- Nutsedge, Yellow plant response rating [1, 17]: 80
- Plant response rating, Cupgrass, Woolly [2, 13]: 60
- Plant response rating, Cupgrass, Woolly [2, 18]: 10
- Plant response rating, Cupgrass, Woolly [2, 14]: 20
- Plant response rating, Cupgrass, Woolly [2, 15]: 25
- Cupgrass, Woolly plant response rating [2, 19]: 45
- Plant response rating, Cupgrass, Woolly [2, 16]: 10
- Plant response rating, Cupgrass, Woolly [2, 20]: 45
- Cupgrass, Woolly plant response rating [2, 17]: 50
- Plant response rating, Surinam Grass [3, 13]: 90
- Plant response rating, Surinam Grass [3, 14]: 75
- Plant response rating, Surinam Grass [3, 15]: 80
- Plant response rating, Surinam Grass [3, 16]: 0
- Surinam Grass plant response rating [3, 17]: 75
- Plant response rating, Foxtail, Green [4, 13]: 10
- Plant response rating, Foxtail, Green [4, 18]: 45
- Plant response rating, Foxtail, Green [4, 14]: 60
- Plant response rating, Foxtail, Green [4, 15]: 85
- Foxtail, Green plant response rating [4, 19]: 85
- Plant response rating, Foxtail, Green [4, 16]: 0
- Plant response rating, Foxtail, Green [4, 20]: 0
- Foxtail, Green plant response rating [4, 17]: 5
- Plant response rating, Crabgrass, Large [5, 13]: 98
- Plant response rating, Crabgrass, Large [5, 18]: 60
- Plant response rating, Crabgrass, Large [5, 14]: 65
- Plant response rating, Crabgrass, Large [5, 15]: 75
- Crabgrass, Large plant response rating [5, 19]: 75
- Plant response rating, Crabgrass, Large [5, 16]: 45
- Plant response rating, Crabgrass, Large [5, 20]: 75
- Crabgrass, Large plant response rating [5, 17]: 85
- Plant response rating, Morningglory [6, 13]: 0
- Plant response rating, Morningglory [6, 14]: 30
- Plant response rating, Morningglory [6, 15]: 45
- Plant response rating, Morningglory [6, 16]: 0
- Plant response rating, Morningglory [6, 20]: 0
- Morningglory plant response rating [6, 17]: 0
- Plant response rating, Foxtail, Giant [7, 13]: 25
- Plant response rating, Foxtail, Giant [7, 18]: 70
- Plant response rating, Foxtail, Giant [7, 14]: 80
- Plant response rating, Foxtail, Giant [7, 15]: 80
- Foxtail, Giant plant response rating [7, 19]: 85
- Plant response rating, Foxtail, Giant [7, 16]: 0
- Plant response rating, Foxtail, Giant [7, 20]: 0
- Foxtail, Giant plant response rating [7, 17]: 15
- Plant response rating, Corn (corn (Zea mays); [13]): 0
- Plant response rating, Corn (corn (Zea mays); [18]): 20
- Plant response rating, Corn (corn (Zea mays); [14]): 35
- Plant response rating, Corn (corn (Zea mays); [15]): 60
- Corn plant response rating (corn (Zea mays); [19]): 75
- Plant response rating, Corn (corn (Zea mays); [16]): 0
- Plant response rating, Corn (corn (Zea mays); [20]): 0
- Corn plant response rating (corn (Zea mays); [17]): 0
- Plant response rating, Ryegrass, Italian [8, 13]: 0
- Plant response rating, Ryegrass, Italian [8, 14]: 5
- Plant response rating, Ryegrass, Italian [8, 15]: 5
- Plant response rating, Ryegrass, Italian [8, 16]: 0
- Ryegrass, Italian plant response rating [8, 17]: 0
- Plant response rating, Bermudagrass [9, 13]: 98
- Plant response rating, Bermudagrass [9, 18]: 80
- Plant response rating, Bermudagrass [9, 14]: 85
- Plant response rating, Bermudagrass [9, 15]: 90
- Bermudagrass plant response rating [9, 19]: 90
- Plant response rating, Bermudagrass [9, 16]: 0
- Plant response rating, Lambsquarters [10, 13]: 100
- Plant response rating, Lambsquarters [10, 14]: 85
- Plant response rating, Lambsquarters [10, 15]: 90
- Lambsquarters plant response rating [10, 19]: 95
- Plant response rating, Lambsquarters [10, 16]: 90
- Plant response rating, Lambsquarters [10, 20]: 90
- Lambsquarters plant response rating [10, 17]: 95
- Plant response rating, Blackgrass [11, 13]: 0
- Plant response rating, Blackgrass [11, 18]: 0
- Plant response rating, Blackgrass [11, 14]: 5
- Plant response rating, Blackgrass [11, 15]: 10
- Blackgrass plant response rating [11, 19]: 10
- Plant response rating, Blackgrass [11, 16]: 0
- Plant response rating, Blackgrass [11, 20]: 0
- Blackgrass plant response rating [11, 17]: 0
- Plant response rating, Bromegrass, Downy [12, 13]: 0
- Plant response rating, Bromegrass, Downy [12, 18]: 0
- Plant response rating, Bromegrass, Downy [12, 14]: 5
- Plant response rating, Bromegrass, Downy [12, 15]: 10
- Bromegrass, Downy plant response rating [12, 19]: 25
- Plant response rating, Bromegrass, Downy [12, 16]: 0
- Plant response rating, Bromegrass, Downy [12, 20]: 0
- Bromegrass, Downy plant response rating [12, 17]: 0

From US8952024B2, “Herbicidal pyrimidone derivatives” (E I du Pont de Nemours and Company, priority 2009, dated 2015)
